In brackets after ≈: the same amount, converted by molar mass. Several values for one entry are separate records, joined by “and”; a condition that tells them apart may be missing. Equal values may be shown once.
Legend:
[1] = tested on: cancer cells; test: Inhibition of cancer growth, cancer invasion, cell invasion or cancer cell invasion; format: cell-based
Text: The program is based on our purification methods and biological assays including the MTT assay. See International Application No. PCT/US05/31900, filed Sep. 7, 2005, U.S. Serial No. 11/289,142, filed Nov. 28, 2005, and U.S. Serial No. 11/131551, filed May 17, 2005, and PCT/US2008/002086, 1188-ALA-PCT, filed Feb. 15, 2008, 12/344,682, 1020-B1-US, filed Dec. 29, 2008. The details of Analysis of gene expression of ES2 cells after Y-treatment by Microarray, Data Analysis Methods and Western blot in PCT/US2008/002086, 1188-ALA-PCT, filed Feb. 15, 2008, and the cell invasion experiments methods in International Application PCT/US2010/0042240, filed Jul. 16, 2010.

[2] = tested on: DU145; test: MTT assay, prostate (DU145); format: cell-based, human
Experimental: (§1) Cells. HTB-9 (bladder), HeLa-S3 (cervix), DU145 (prostate), H460 (lung), MCF-7 (breast), K562 (leukemia), HCT116 (colon), HepG2 (liver), U2OS (bone), T98G (brain), SK-MEL-5 (Skin) and OVCAR 3, ES2 (ovary), Pancreas (Capan), Mouth (KB), Kidney(A498).
(§2) MTT Assay. The procedure for MTT assay followed the method described by Carmichael et al. (1987) with modifications. The cells were seeded into a 96-well plate at for 24 hours before drug-treatment. The cells were then exposed to the drugs for 48, 72, or 96 hours. After the drug-treatment, MTT (0.5 mg/mL) was added to cultures and incubated for an hour. The formazan (product of the reduction of tetrazolium by viable cells) formed and was dissolved with DMSO and the O.D. at 490 nm, and was measured by an ELISA reader. The MTT level of the cells before drug-treatment was also measured (T0). The % cell-growth (%G) is calculated as: %G = (TD-T0 / TC-T0) x 100(1), where TC or TD represents O.D. readings of control or drug-treated cells. When T0 > TD, then the cytotoxicity (LC) expressed as % of the control is calculated as: %LC = (TD-T0 / T0) × 100(2).

[3] = tested on: MCF-7; test: MTT assay, breast (MCF-7); format: cell-based, human
Experimental: as §1, §2

[4] = tested on: ES2; test: MTT assay, ovary (ES2); format: cell-based, human
Experimental: as §1, §2
Method: A. Cells • -WI38 is a Normal Lung fibroblast. Cells were grown in MEM medium supplemented with 10% FCS, antibiotics and glutamine. 20 K cells were seeded per well (96-welled plate) for one day before drug-treatment • -ES2 is an Ovary Clear cells carcinoma. Cells were grown in RPMI-1640 medium supplemented with 10% FCS, antibiotics and glutamine. 10 K cells were seeded per well (96-welled plate) for one day before drug-treatment.
B. Drug treatment: • -Drug: Tig-S. stored as 1000x stock solution in DMSO. • -Drug concentration used: from 0.15 - 20 ug/ml. • -Drug-treatment was carried out for 2 days (ES2) or 6 days (WI38). For the 6 days incubation, cells were fed with fresh medium (with drug) on day 3 and 5.
C. At the end of the drug-treatment, cytotoxic test was performed with MTT assay.

[5] = tested on: A498; test: MTT assay, kidney (A498); format: cell-based, human
Experimental: as §1, §2

[6] = tested on: U2OS; test: MTT assay, bone (U2OS); format: cell-based, human
Experimental: as §1, §2

[7] = tested on: HeLa; test: MTT assay, cervix (HeLa); format: cell-based, human
Experimental: as §1, §2

| IC50 of prostate (DU145) [2] [µg/mL] | IC50 of breast (MCF-7) [3] [µg/mL] | IC50 of bone (U2OS) [6] [µg/mL] | IC50 of cervix (HeLa) [7] [µg/mL] | Compound | anti-cancer activity [1] | IC50 of ovary (ES2) ([4]; MTT) | IC50 of kidney (A498) [5] [µg/mL] | IC50, ES2 cells ([4]; 2 days drug treatment, MTT) [µg/mL] | IC100, ES2 cells ([4]; MTT OD after treatment equal to OD before treatment, 2 days) | IC50 in ES2 cells ([4]; MTT assay with low doses of Tig-S) [µg/mL] | % of the control cell growth, ES2 ([4]; at 10 ug/ml) [%] | MTT OD as % of the original value, ES2 ([4]; at 10 ug/ml) [%] |
| --- | --- | --- | --- | --- | --- | --- | --- | --- | --- | --- | --- | --- |
| 3.6 | 4.5 | 4.5 |  | 24,28-O-Tigloyl-3β,16α, 21β, 22a, 24β, 28-hexahydroxyolean-12-ene [Tig-R] | have anti-cancer activities | 2.8 ug/ml and about 2.8 ug/ml | 3.5 |  |  |  |  |  |
| 4.8 | 13 | 15 | 15 | CC=C(C)C(=O)OCC1(C)C(O)CCC2(C)C1CCC1(C)C2CC=C2C3CC(C)(C)C(O)C(O)C3(CO)C(O)CC21C (stereo not shown) [Tig-N] | have anti-cancer activities | 9 µg/mL | 11 |  |  |  |  |  |
| 16 | 20 | 20 | 18 | CC=C(C)C(=O)OCC1(C)C(O)CCC2(C)C1CCC1(C)C2CC=C2C3CC(C)(C)C(O)C(OC(=O)C(C)=CC)C3(COC(=O)C(C)=CC)C(O)CC21C (stereo not shown) [Tig-T] | have anti-cancer activities | 14 µg/mL | 15 |  |  |  |  |  |

| Compound | IC50 of prostate (DU145) [2] [µg/mL] | IC50 of breast (MCF-7) [3] [µg/mL] | IC50 of bone (U2OS) [6] [µg/mL] | IC50 of cervix (HeLa) [7] [µg/mL] | anti-cancer activity [1] | IC50 of ovary (ES2) ([4]; MTT) | IC50 of kidney (A498) [5] [µg/mL] | IC50, ES2 cells ([4]; 2 days drug treatment, MTT) [µg/mL] | IC100, ES2 cells ([4]; MTT OD after treatment equal to OD before treatment, 2 days) | IC50 in ES2 cells ([4]; MTT assay with low doses of Tig-S) [µg/mL] | % of the control cell growth, ES2 ([4]; at 10 ug/ml) [%] | MTT OD as % of the original value, ES2 ([4]; at 10 ug/ml) [%] |
| --- | --- | --- | --- | --- | --- | --- | --- | --- | --- | --- | --- | --- |
| CC=C(C)C(=O)OCC1(C)C(O)CCC2(C)C1CCC1(C)C2CC=C2C3CC(C)(C)C(OC(=O)C(C)=CC)C(O)C3(CO)C(O)CC21C (stereo not shown) [Tig-S] | 4.3 | 6.3 | 5.2 | 7 | have anti-cancer activities |  | 4.8 | 0.3 (≈ 0.447 µM) | 0.16 to 0.3 µg/mL and 0.15 to 0.3 µg/mL | ~0.1 (≈ 0.149 µM) | 10 | 12 |
